We go through 4 molecules from publication PMC8434204, “Discrimination of Methionine Sulfoxide and Sulfone by Human Neutrophil Elastase” (Molecules, 2021).

For assay [1], the target named is T1, Human neutrophil elastase (HNE) (Homo sapiens, UniProt P08246).
T1 construct: HNE purified from purulent human sputum (Elastin Products Company, Owensville, MO, USA); purchased Elastin Products Company, Owensville, MO, USA; host or cells: purulent human sputum (natural source)
T1 sequence (P08246 30-247 limits assumed): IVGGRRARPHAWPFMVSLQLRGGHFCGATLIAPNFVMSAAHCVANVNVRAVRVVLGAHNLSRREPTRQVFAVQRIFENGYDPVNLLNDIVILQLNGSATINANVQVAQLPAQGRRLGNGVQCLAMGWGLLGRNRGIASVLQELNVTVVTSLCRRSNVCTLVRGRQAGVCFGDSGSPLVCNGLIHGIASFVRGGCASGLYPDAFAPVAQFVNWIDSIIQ
As to the kind of experiment: Inhibition of HNE proteolysis by peptide aldehyde inhibitors. In kind it is biochemical. The note with it: for Ki: 10 nM active HNE, 100 nM Ac-RM(O2)AA-pNA substrate (Figure 3), 20 min complex formation at RT, 405 nm, Morrison equation for tight-binding inhibitors, three replicate experiments of triplicate measurements; for Relative Potency (fold inhibition enhancement relative to Ac-RMAV-H): ratio of Ki values relative to non-oxidised Ac-RMAV-H. As for the experimental part:
Figure 3 Dose-response plot of Ac-RMAV-H peptide aldehyde inhibitor variants containing differing oxidation states of the P3 methionine residue. All assays contained 10 nM active HNE and 100 nM Ac-RM(O2)AA-pNA substrate. Data are reported as percent activity remaining compared to uninhibited controls, and data points represent the mean observed from three replicate experiments of triplicate measurements. Error bars show SEM. Where not visible, error bars are smaller than the pictured data point.
(§1) For substrate library kinetic assay screen, reactions were initiated by addition of HNE purified from purulent human sputum (Elastin Products Company, Owensville, MO, USA) to triplicate microplate wells containing each substrate, and the rate of reaction determined spectrophotometrically at 405 nm. Final concentrations were 300 µM substrates and 1 µg/mL HNE in 250 µL assay buffer (100 mM Tris pH 8, 50 mM NaCl, 10% DMF, 0.05% Triton X-100). For in-depth assays of candidate substrates and inhibitors, the active site concentration of HNE was first determined by titration with A1AT. Briefly, 250 nM A1AT was serially diluted in a 96-well microplate to provide a final assay volume of 250 µL. A total of 2.5 µL of HNE stock solution (100 µg/mL) was added to each well and complex formation was allowed to proceed over a period of 20 min at RT. Assays were initiated by addition of Ac-RM(O2)PA-pNA substrate, monitoring the evolution of free para-nitroanilide at 405 nm for 90 s again at RT. Kinetic assays of synthesized pNA substrates were carried out similarly omitting the A1AT and serially diluting the substrates, KM and Vmax values were determined by GraphPad Prism 5.01 (La Jolla, CA, USA) Michaelis–Menten non-linear regression. Assays with peptide aldehyde inhibitors were carried out as with the active site titration. Inhibition constants were calculated in GraphPad Prism by non-linear regression using the Morrison equation for tight-binding inhibitors.

Assay [2] addresses T1, Human neutrophil elastase (HNE). The assay is described as follows: Kinetic assays of synthesized pNA substrates (Michaelis-Menten). In kind it is biochemical. As for the experimental part:
Figure 2 Substrate concentration versus velocity plot of candidate pNA substrates containing a P1 valine residue (A), or a P1 alanine residue (B), assayed against 3 nM active HNE. […] Data points represent the average rate observed from three replicate experiments of triplicate measurements. […] Error bars show SEM. Where not visible, error bars are smaller than the pictured data point.
as §1

Assay [3] shares this target. Conditions: literature value; read-out: KM, previously published value; cited from earlier work. The source says:
The standard substrate MeOSuc-AAPV-pNA was also synthesised to provide a benchmark against other studies. […] Acetylated forms of the P4 arginine substrates were synthesised to assess the effect of a charged N-termin ...

Read-outs that look alike come from different tables or passages of the source. Square brackets hold non-standard residues; d marks the D form. Peptide text beside a SMILES is read from it. * marks the point of attachment. Met(O2) = CS(=O)(=O)CC[C@H](N)C(=O)O; Met(O) = CS(=O)CC[C@H](N)C(=O)O; pNA = O=[N+]([O-])c1ccc(N*)cc1; MeOSuc = COC(=O)CCC(=O)*

Usually Ki stands for a dissociation constant, usually derived from enzyme kinetics or from competition with a known ligand. Read a low Ki as a stronger hold on the target. As for `CC(=O)N[C@@H](CCCNC(=N)N)C(=O)N[C@@H](CCS(C)(=O)=O)C(=O)N[C@@H](C)C(=O)N[C@H](C=O)C(C)C` [Ac-RM(O2)AV-H] (Ac-R[Met(O2)]AV-aldehyde), in assay [1], affinity was put at a Ki of 0.147 µM and the “Relative Potency (fold inhibition enhancement relative to Ac-RMAV-H)” value was determined as 49.4.
The like results for `CC(=O)N[C@@H](CCCNC(=N)N)C(=O)N[C@@H](CC[S+](C)[O-])C(=O)N[C@@H](C)C(=O)N[C@H](C=O)C(C)C` (stereo partly shown) [Ac-RM(O)AV-H] (Ac-R[Met(O)]AV-aldehyde) were, in that order, 5.55 µM and 1.3.
For `CSCC[C@H](NC(=O)[C@H](CCCNC(=N)N)NC(C)=O)C(=O)N[C@@H](C)C(=O)N[C@H](C=O)C(C)C` [Ac-RMAV-H] (Ac-RMAV-aldehyde), in that order: 7.27 µM and 1.
Broadly, the kcat is the number of substrate molecules converted per active site and unit of time at saturation. The Km is the concentration of substrate that gives half-maximal velocity. As a reminder, the kcat/KM is the turnover number divided by the Michaelis constant. “MeOSuc-AAPV-pNA (SMILES COC(=O)CCC(=O)N[C@@H](C)C(=O)N[C@@H](C)C(=O)N1CCC[C@H]1C(=O)N[C@H](C(=O)Nc1ccc([N+](=O)[O-])cc1)C(C)C) [standard HNE substrate synthesised as benchmark against other studies]”: the kcat in assay [2] (3 nM active HNE (purified from purulent human sputum), 100 mM Tris pH 8, 50 mM NaCl, 10% DMF, 0.05% Triton X-100, RT, 405 nm, Michaelis-Menten non-linear regression, three replicate experiments of triplicate measurements) turned out to be 2.90 s⁻¹. Also, the Km in assay [2] (3 nM active HNE, 100 mM Tris pH 8, 50 mM NaCl, 10% DMF, 0.05% Triton X-100, RT, 405 nm, Michaelis-Menten non-linear regression, ± SEM) was 153 ± 17.6 µM; in assay [3] it was 140 µM. For the same molecule, the kcat/KM in assay [2] (catalytic efficiency calculated from kcat and KM, 3 nM active HNE) was 18900 M⁻¹ s⁻¹.
